Measurements from patent US20160330959A1, “FUNGICIDAL COMPOSITIONS OF PYRAZOLECARBOXYLIC ACID ALKOXYAMIDES” (BAYER CROPSCIENCE AKTIENGESELLSCHAFT, priority 2014, published 2016).

Assays:
[1] = log P by HPLC on reversed phase columns (EEC directive 79/831 Annex V.A8); type: physicochemical; settings: pH 2.7, pH 2,7, 0.1% formic acid in water / acetonitrile gradient
Procedure: Measurement of log P values was performed according EEC directive 79/831 Annex V.A8 by HPLC (High Performance Liquid Chromatography) on reversed phase columns with the following methods: ^[a] Measurement of LC-MS was done at pH 2,7 with 0.1% formic acid in water and with acetonitrile (contains 0.1% formic acid) as eluent with a linear gradient from 10% acetonitrile to 95% acetonitrile. Calibration was done with not branched alkan2-ones (with 3 to 16 carbon atoms) with known log P-values (measurement of log P values using retention times with linear interpolation between successive alkanones). lambda-maX-values were determined using UV-spectra from 200 nm to 400 nm and the peak values of the chromatographic signals.

Septoria tritici = assay: in vivo preventive Septoria tritici test (wheat); settings: preventive spray, evaluated 21 days after inoculation
Text: (§1) A synergistic effect of fungicides is always present when the fungicidal activity of the active compound combinations exceeds the total of the activities of the active compounds when applied individually. The expected activity for a given combination of two active compounds can be calculated as follows (cf. Colby, S. R., “Calculating Synergistic and Antagonistic Responses of Herbicide Combinations”, Weeds 1967, 15, 20-22): • If • X is the efficacy when active compound A is applied at an application rate of m ppm (or g/ha), • Y is the efficacy when active compound B is applied at an application rate of n ppm (or g/ha), • E is the efficacy when the active compounds A and B are applied at application rates of m and n ppm (or g/ha), respectively, and • then
(§2) The degree of efficacy, expressed in % is denoted. 0% means an efficacy which corresponds to that of the control while an efficacy of 100% means that no disease is observed.
To produce a suitable preparation of active compound, 1 part by weight of active compound or active compound combination is mixed with the stated amounts of solvent and emulsifier, and the concentrate is diluted with water to the desired concentration.
To test for preventive activity, young plants are sprayed with the preparation of active compound or active compound combination at the stated rate of application.
After the spray coating has been dried, the plants are sprayed with a spore suspension of Septoria tritici. The plants remain for 48 hours in an incubation cabinet at approximately 20° C. and a relative atmospheric humidity of approximately 100% and afterwards for 60 hours at approximately 15° C. in a translucent incubation cabinet at a relative atmospheric humidity of approximately 100%.
The plants are placed in the greenhouse at a temperature of approximately 15° C. and a relative atmospheric humidity of approximately 80%.
The test is evaluated 21 days after the inoculation. 0% means an efficacy which corresponds to that of the untreated control, while an efficacy of 100% means that no disease is observed.

Alternaria solani = assay: in vivo preventive test on Alternaria test (tomatoes); settings: preventive spray, evaluated 3 days after inoculation
Text: as §1, §2
To produce a suitable preparation of active compound, 1 part by weight of active compound is mixed with the stated amounts of solvent and emulsifier, and the concentrate is diluted with water to the desired concentration.
To test for preventive activity, young plants are sprayed with the preparation of active compound at the stated rate of application. After the spray coating has dried on, the plants are inoculated with an aqueous spore suspension of Alternaria solani. The plants are then placed in an incubation cabinet at approximately 20° C. and a relative atmospheric humidity of 100%.
The test is evaluated 3 days after the inoculation. 0% means an efficacy which corresponds to that of the untreated control while an efficacy of 100% means that no disease is observed.

| SMILES | Efficacy in % found (Septoria tritici; 50 ppm a.i.) | Efficacy in % found (Alternaria solani; 0.125 ppm a.i.) | Efficacy in % found (Alternaria solani; 0.25 ppm a.i.) | further results |
| --- | --- | --- | --- | --- |
| CON(C(=O)c1c(C(F)F)nn(C)c1F)C(C)Cc1c(Cl)cc(Cl)cc1Cl (stereo not drawn) [Compound I-2, 3-(difluoromethyl)-5-fluoro-N-methoxy-1-methyl-N-[1-(2,4,6-trichlorophenyl)propan-2-yl]-1H-pyrazole-4-carboxamide] | – | – | – | chromatographic logP [1]: 4.29 |
| Cc1nc2c(F)c(F)ccc2cc1Oc1cccc(F)c1C(C)(C)O [Compound B1-3, 2-{2-[(7,8-difluoro-2-methylquinolin-3-yl)oxy]-6-fluorophenyl}propan-2-ol] | 25% | – | – | – |
| Cc1nc2c(F)cccc2cc1Oc1cccc(F)c1C(C)(C)O [Compound B1-2, 2-{2-fluoro-6-[(8-fluoro-2-methylquinolin-3-yl)oxy]phenyl}propan-2-ol] | 0% | – | – | – |
| CC1(C)N=C(c2cnc3ccccc3c2)c2ccccc2C1(F)F [Compound B1-4] | – | 0% | 0% | Efficacy in % found (Septoria tritici; 60 ppm a.i.): 13%; Efficacy in % found (Alternaria solani; 0.5 ppm a.i.): 15% |
| CC1(C)CN=C(c2cnc3ccccc3c2)c2cccc(F)c2O1 [Compound B1-1, 9-fluoro-2,2-dimethyl-5-(quinolin-3-yl)-2,3-dihydro-1,4-benzoxazepine] | 25% | – | – | – |
| CON(C(=O)c1cn(C)nc1C(F)F)C(C)Cc1c(Cl)cc(Cl)cc1Cl (stereo not drawn) [Compound I-1, 3-(difluoromethyl)-N-methoxy-1-methyl-N-[1-(2,4,6-trichlorophenyl)propan-2-yl]-1H-pyrazole-4-carboxamide] | – | 73% | 85% | Efficacy in % found (Septoria tritici; 5 ppm a.i.): 50%; Efficacy in % found (Septoria tritici; 10 ppm a.i.): 63% |
